{"source": "patent US9334212B2", "about": "“Compounds and compositions” (Colgate-Palmolive Company, priority 2010, dated 2016)", "format_in_all_cases": "cell-based", "key": {"A. viscosus": {"tested_on": "A. viscosus", "experiment": "Minimum Inhibitory Concentration, oral pathogens", "settings": "Actinomyces viscosus, read-out: Minimum Inhibitory Concentration", "description": "(§1) Table 1 (below) describes the antibacterial efficacy of an exemplary compound of the present invention against common oral pathogens, A. viscosus and S. mutans."}, "S. mutans": {"tested_on": "S. mutans", "experiment": "Minimum Inhibitory Concentration, oral pathogens", "settings": "Streptococcus mutans, read-out: Minimum Inhibitory Concentration", "description": "as §1"}, "[1]": {"tested_on": "Corynebacterium minutissimum (C. minutissimum)", "experiment": "Zone of Inhibition Test (ZOI)", "procedure": "(§2) The compound of Formula (II) was evaluated for its antibacterial efficacy against representative skin bacteria such as Staphylococcus aureus (S. aureus), Staphylococcus epidermidis (S. epidermidis), Corynebacterium minutissimum (C. minutissimum), Corynebacterium xerosis (C. xerosis) and Escherichia coli (E. coli). Zone of inhibition (ZOI), Minimum Inhibitory Concentration (MIC), and a Short Interval Kill Test (SIKT) were all performed, and the results are described in Tables 2-4 (below).\n(§3) 20 μL of each solution was placed on separate filter disks and air dried for 20 minutes. After 20 minutes of drying, the coated disks were placed in the bacterial lawn and plates were incubated at 37° C. for 18 hours, followed by measurement of ZOI.\n(§4) The antibacterial efficacy of the compound of Formula (II) was measured in comparison to triclosan, using various tests. The results are provided below in Tables 5 and 6."}, "[2]": {"tested_on": "Staphylococcus aureus (S. aureus)", "experiment": "Zone of Inhibition Test (ZOI)", "procedure": "as §2, §3, §4"}, "[3]": {"tested_on": "Corynebacterium xerosis (C. xerosis)", "experiment": "Zone of Inhibition Test (ZOI)", "settings": "37° C. 18 hours", "procedure": "as §2\nas §3, with “The compound of Formula (II) was dissolved in polyethylene glycol (PEG 300), or in 100% ethanol at 0.5% concentration. 20 μL” for “20 μL”"}, "[4]": {"tested_on": "Staphylococcus epidermidis (S. epidermidis)", "experiment": "Zone of Inhibition Test (ZOI)", "settings": "S. epiderm., 37° C. 18 hours", "procedure": "as §2\nas §3, with “The compound of Formula (II) was dissolved in polyethylene glycol (PEG 300), or in 100% ethanol at 0.5% concentration. 20 μL” for “20 μL”"}, "[5]": {"tested_on": "Escherichia coli (E. coli)", "experiment": "Zone of Inhibition Test (ZOI)", "settings": "Example 4", "procedure": "as §2\nas §3, with “The compound of Formula (II) was dissolved in polyethylene glycol (PEG 300), or in 100% ethanol at 0.5% concentration. 20 μL” for “20 μL”\nas §4"}, "[6]": {"tested_on": "Corynebacterium minutissimum (C. minutissimum)", "experiment": "Minimum Inhibitory Concentration (MIC), skin bacteria", "settings": "for MIC: Corynebacterium minutissimum, read-out: Minimum Inhibitory Concentration", "procedure": "as §2\n(§5) MIC against four common skin pathogens was evaluated for the compound of Formula (II), using the following method: A two-fold dilution of the compound of Formula (II) was prepared in a 96 well plate and a constant amount of bacteria added in each well. After 18-24 hours of incubation, bacterial growth was measured by using a Spectrophotometric Micro-plate Reader and the MIC values were determined.\nas §4"}, "[7]": {"tested_on": "Escherichia coli (E. coli)", "experiment": "Minimum Inhibitory Concentration (MIC), skin bacteria", "procedure": "as §2, §5, §4"}, "[8]": {"tested_on": "Staphylococcus aureus (S. aureus)", "experiment": "Minimum Inhibitory Concentration (MIC), skin bacteria", "settings": "for MIC: Staphylococcus aureus, read-out: Minimum Inhibitory Concentration", "procedure": "as §2, §5, §4"}, "[9]": {"tested_on": "Corynebacterium xerosis (C. xerosis)", "experiment": "Minimum Inhibitory Concentration (MIC), skin bacteria", "settings": "read-out: Minimum Inhibitory Concentration", "procedure": "as §2, §5"}, "[10]": {"tested_on": "Staphylococcus epidermidis (S. epidermidis)", "experiment": "Minimum Inhibitory Concentration (MIC), skin bacteria", "settings": "for MIC: Staphylococcus epidermidis, read-out: Minimum Inhibitory Concentration", "procedure": "as §2, §5"}, "bacterial suspension": {"tested_on": "bacterial suspension", "experiment": "Short Interval Kill Test (SIKT)", "procedure": "SIKT determines the kill effect of the test article at a predetermined exposure time. […] Briefly, 1.2 mL of the compound of Formula (II)+PEG 300 was transferred into a sterile test tube, to which 0.2 mL of a freshly prepared bacterial suspension (OD adjusted to 0.1 at 620 nm) was added and gently mixed. The reaction was neutralized at the 1 minute or at the 5 minute point by adding a neutralizing broth. The reaction mixture was further diluted with letheen broth in 10-fold fashion and plated on MCA (Microbial Count Agar) plates for viable bacterial count."}, "E. coli": {"tested_on": "E. coli", "experiment": "Rapid Agar Plate Assay (RAPA)", "settings": "vs tap water washed plates", "procedure": "(§6) The compound of Formula (II) was mixed with a base bar soap chip and tested for any residual antibacterial activity against S. aureus and E. coli by a rapid agar plate assay (RAPA). Briefly, the method involves washing TSA plates with the soap samples for 10 seconds, lathering for another 40 seconds and finally rinsing for 10 seconds. After air drying for 30 minutes, 100 μL of freshly prepared bacterial suspension (density was adjusted to 0.1 OD at 620 nm) was applied on the treated plates and then plates were incubated at 37° C. for about 18 hours. TSA plates washed with normal tap water were used as negative control. Next day, bacterial colonies were counted and converted to log 10 and the log reductions as a result of washing with samples were calculated."}, "S. aureus": {"tested_on": "S. aureus", "experiment": "Rapid Agar Plate Assay (RAPA)", "settings": "for Log reduction in Bacterial Count: vs tap water washed plates", "procedure": "as §6"}, "[11]": {"settings": "0.5% in EtOH, 20 μL on filter disk, 37° C. 18 hours"}, "[12]": {"settings": "0.5% in PEG 300, 20 μL on filter disk, 37° C. 18 hours"}, "[13]": {"settings": "0.5% in EtOH, 20 μL on filter disk"}, "[14]": {"settings": "0.5% in PEG 300, 20 μL on filter disk"}}, "note": "Read-outs that look alike come from different tables or passages of the source."}
{"molecule": "C=CCc1cc(Cl)c(O)c(-c2cc(CC=C)cc(Cl)c2O)c1", "note": "[Compound of Formula (II)]", "values": [{"measurement": "MIC", "setting": "A. viscosus; A. viscosus", "result": "0.5 to 1", "unit": "mg/L"}, {"measurement": "MIC", "setting": "S. mutans; S. mutans", "result": "0.5 to 1", "unit": "mg/L"}, {"measurement": "Zone of Inhibition", "setting": "[1]; [11]", "result": 17, "unit": "mm"}, {"measurement": "Zone of Inhibition", "setting": "[1]; [12]", "result": 21, "unit": "mm"}, {"measurement": "Zone of Inhibition", "setting": "[1]; 0.5%, Example 4", "result": 22, "unit": "mm"}, {"measurement": "Zone of Inhibition", "setting": "[2]; [11]", "result": 13, "unit": "mm"}, {"measurement": "Zone of Inhibition", "setting": "[2]; [12]", "result": 15, "unit": "mm"}, {"measurement": "Zone of Inhibition", "setting": "[2]; 0.5%, Example 4", "result": 20, "unit": "mm"}, {"measurement": "Zone of Inhibition", "setting": "[3]; [13]", "result": 14, "unit": "mm"}, {"measurement": "Zone of Inhibition", "setting": "[3]; [14]", "result": 15, "unit": "mm"}, {"measurement": "Zone of Inhibition", "setting": "[4]; [13]", "result": 15, "unit": "mm"}, {"measurement": "Zone of Inhibition", "setting": "[4]; [14]", "result": 16, "unit": "mm"}, {"measurement": "Zone of Inhibition", "setting": "[5]; 0.5%", "result": 0, "unit": "mm"}, {"measurement": "MIC", "setting": "[6]; C. minutissimum, 0.5% active, Example 4", "result": 9.7, "unit": "mg/L"}, {"measurement": "MIC", "setting": "[6]; C. minutissimum, + EtOH, 18-24 hours incubation", "result": 39, "unit": "mg/L"}, {"measurement": "MIC", "setting": "[6]; C. minutissimum, + PEG 300, 18-24 hours incubation", "result": 9.77, "unit": "mg/L"}, {"measurement": "MIC", "setting": "[7]; E. coli, 0.5% active, Example 4, read-out: Minimum Inhibitory Concentration", "result": 1250, "unit": "mg/L"}, {"measurement": "MIC", "setting": "[8]; S. aureus, 0.5% active, Example 4", "result": 2.44, "unit": "mg/L"}, {"measurement": "MIC", "setting": "[8]; S. aureus, + EtOH, 18-24 hours incubation", "result": 39, "unit": "mg/L"}, {"measurement": "MIC", "setting": "[8]; S. aureus, + PEG 300, 18-24 hours incubation", "result": 19.5, "unit": "mg/L"}, {"measurement": "MIC", "setting": "[9]; C. xerosis, + EtOH, 18-24 hours incubation", "result": 156, "unit": "mg/L"}, {"measurement": "MIC", "setting": "[9]; C. xerosis, + PEG 300, 18-24 hours incubation", "result": 78, "unit": "mg/L"}, {"measurement": "Minimum Inhibitory Concentration", "setting": "[10]; S. epiderm., + EtOH, 18-24 hours incubation", "result": 39, "unit": "ppm"}, {"measurement": "MIC", "setting": "[10]; S. epiderm., + PEG 300, 18-24 hours incubation", "result": 39, "unit": "mg/L"}, {"measurement": "Short Interval Kill Test kill effect", "setting": "bacterial suspension; 0.5% + PEG 300, exposure time 1 minute", "result": 65.18}, {"measurement": "Short Interval Kill Test kill effect", "setting": "bacterial suspension; 0.5% + PEG 300, exposure time 5 minute", "result": 87.37}, {"measurement": "Log reduction in Bacterial Count", "setting": "E. coli; 0.5% in soap chip", "result": 0.09, "unit": "log"}, {"measurement": "Log reduction in Bacterial Count", "setting": "S. aureus; 0.5% in soap chip", "result": 0.506, "unit": "log"}, {"measurement": "Log reduction in Bacterial Count", "setting": "S. aureus; 0.5% in soap chip, listed as compound of Formula (II)", "result": 0.5, "unit": "log"}, {"measurement": "reduction in the growth", "setting": "S. aureus; bar soap chip containing 0.5%", "result": "> 50", "unit": "%"}]}
{"molecule": "C=CCc1ccc(O)c(-c2cc(CC=C)ccc2O)c1", "note": "[Magnolol, magnolol]", "values": [{"measurement": "MIC", "setting": "A. viscosus", "result": 32, "unit": "mg/L"}, {"measurement": "MIC", "setting": "S. mutans", "result": 32, "unit": "mg/L"}]}
{"molecule": "O=C(Nc1ccc(Cl)cc1)Nc1ccc(Cl)c(Cl)c1", "note": "[TCC, reference compound]", "values": [{"measurement": "Short Interval Kill Test kill effect", "setting": "bacterial suspension; 0.5%, exposure time 1 minute", "result": 56.54}, {"measurement": "Short Interval Kill Test kill effect", "setting": "bacterial suspension; 0.5%, exposure time 5 minute", "result": 74.11}, {"measurement": "Log reduction in Bacterial Count", "setting": "E. coli; 0.4% TCC bar", "result": 0.167, "unit": "log"}, {"measurement": "Log reduction in Bacterial Count", "setting": "S. aureus; 0.4% TCC bar", "result": 2.409, "unit": "log"}]}
{"molecule": "Oc1cc(Cl)ccc1Oc1ccc(Cl)cc1Cl", "note": "[Triclosan, 5-chloro-2-(2,4-dichlorophenoxy)phenol, reference compound]", "values": [{"measurement": "MIC", "setting": "A. viscosus", "result": "1 to 2", "unit": "mg/L"}, {"measurement": "MIC", "setting": "S. mutans", "result": "1 to 2", "unit": "mg/L"}, {"measurement": "Zone of Inhibition", "setting": "[1]; 0.15%, Example 4", "result": 21, "unit": "mm"}, {"measurement": "Zone of Inhibition", "setting": "[2]; 0.15%, Example 4", "result": 50, "unit": "mm"}, {"measurement": "Zone of Inhibition", "setting": "[5]; 0.15%", "result": 40, "unit": "mm"}, {"measurement": "Minimum Inhibitory Concentration", "setting": "[6]; C. minutissimum, 0.15% active, Example 4", "result": 4.88, "unit": "ppm"}, {"measurement": "MIC", "setting": "[6]", "result": 4.88, "unit": "mg/L"}, {"measurement": "MIC", "setting": "[7]; read-out: Minimum Inhibitory Concentration", "result": "< 2.44", "unit": "mg/L"}, {"measurement": "Minimum Inhibitory Concentration", "setting": "[8]; S. aureus, 0.15% active, Example 4", "result": "<2.44", "unit": "ppm"}, {"measurement": "MIC", "setting": "[8]", "result": "< 2.44", "unit": "mg/L"}, {"measurement": "MIC", "setting": "[9]", "result": 9.76, "unit": "mg/L"}, {"measurement": "MIC", "setting": "[10]", "result": "< 2.44", "unit": "mg/L"}, {"measurement": "Log reduction in Bacterial Count", "setting": "E. coli; 0.25% Triclosan bar", "result": 2.387, "unit": "log"}, {"measurement": "Log reduction in Bacterial Count", "setting": "S. aureus; 0.25% Triclosan bar", "result": 2.409, "unit": "log"}]}
